Data as given in patent EP0426804B1, “2-(2-HYDROXY-3-PHENOXYPROPYLAMINO)-ETHOXYBENZENE DERIVATIVES” (IMPERIAL CHEMICAL INDUSTRIES PLC, priority 1989, dated 1990).

How the values were obtained:
[1] = system: BAT mitochondria; assay: test (b): GDP binding in BAT mitochondria of cold adapted rats, relative to isoprenaline; assay type: in vivo; settings: dose necessary to produce 50% of the isoprenaline (1 mg/kg) effect on GDP binding
[2] = test (d): metabolic rate (oxygen consumption) in cold adapted rats; assay type: in vivo; settings: at 1mgkg⁻¹ p.o.
[3] = test (c): heart rate in rats adapted to a thermoneutral environment (D500 dose and selectivity index); settings: ratio of D₅₀₀ to ED₅₀ in test (b)

Which results are given for `CCCC(=O)Cc1ccc(OCCNCC(O)COc2ccccc2)cc1` (stereo not shown) [Example 5, 1-[4-(2-(2-hydroxy-3-phenoxypropylamino)ethoxy)phenyl]pentan-2-one]?
ED₅₀ [1]: 0.23 mgkg⁻¹; metabolic rate [2]: 6.6 ml O₂ min ⁻¹Kg^.75; SI ([3]; oral): > 100

Which SI ([3]; route not stated) does the source give for `CC(C)NCC(O)c1ccc(O)c(O)c1` (stereo not shown) [isoprenaline, reference compound] here?
The SI was 0.06.
